We go through four molecules from PMC6530537, “Efficient development of stable and highly functionalised peptides targeting the CK2α/CK2β protein–protein interaction” (Chemical Science, 2019).

Data set [1] deals with T1, CK2α (Homo sapiens, UniProt P68400, K74A/K75A/K76A/R21S).
T1 construct: CK2α_KA (residues 2 -329) contained four; His6 (N, cleaved yes); made in house; host or cells: Escherichia coli BL21(DE3)
T1 sequence (P68400 2-329 R21S/K74A/K75A/K76A): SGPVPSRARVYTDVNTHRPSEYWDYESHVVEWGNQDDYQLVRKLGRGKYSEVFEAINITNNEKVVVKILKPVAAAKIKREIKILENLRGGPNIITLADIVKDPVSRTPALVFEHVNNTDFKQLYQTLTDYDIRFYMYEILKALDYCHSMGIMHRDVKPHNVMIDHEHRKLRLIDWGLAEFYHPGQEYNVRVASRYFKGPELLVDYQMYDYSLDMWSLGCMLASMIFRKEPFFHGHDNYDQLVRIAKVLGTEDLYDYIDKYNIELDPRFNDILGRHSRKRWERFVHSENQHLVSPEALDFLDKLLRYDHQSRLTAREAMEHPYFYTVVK
As to the kind of experiment: Isothermal titration calorimetry, direct binding to CK2α. To be noted: for Kd: ITC, 25°C, CK2α_KA, Tris 200 mM, NaCl 300 mM, 10% DMSO, single site binding model. Here is the method: lysed using a high-pressure homogeniser.
The soluble supernatant was applied on a […]
mM NaCl, 1mM DTT, 1mM EDTA, pH 8.5). 100µL of the precision protease was loaded onto the […]
Pure protein was concentrated to 15 mg/mL and flash frozen in liquid N2. […]
1.4.3. Isothermal Calorimetry Titration
1.4.3.1. Direct binding assay
DMSO) and concentrated to 20-50 μM. Compounds in 100× stock solutions were diluted into the […]
Control titrations were performed, and the […]
(Isothermal titration calorimetry measures the heat released or taken up as one component is titrated into another.)

A further data set concerns HCT116 cells. As to the kind of experiment: cells. The data set is classed as cell-based, human. As to conditions: 24 h. The protocol:
(§1) page 47: 1.5. Biological experimental 1.5.1. […] The experiment was performed in duplicates. 1.5.2. […] 1.5.3. […] 46

Data set [2] deals with U2OS cells. As to the kind of experiment: cells. The format is cell-based, human. To be noted: 24 h. The protocol:
as §1

Data set [3] relates to U2OS cells. The data set is described as follows: Cell viability / apoptosis assay (CytoTox-Glo), 4 hour treatment. The format is cell-based, human. To be noted: after 4 hours.
Data set [4] deals with CK2β localisation in U2OS cells. As to the kind of experiment: Immunofluorescence imaging of subcellular localisation of CK2β. The format is cell-based, human. As to conditions: 30 μM, 15 minute incubation, CK2β antibody. Here is the method: (§2) CellCarrier Ultra) in 40 μL of growth medium.
(§3) 1.5.5. Co-localisation experiments […]
(§4) confocal microscope with a 40X water immersion objective. Images were acquired with excitation at […]
(§5) green, red and blue channel respectively.
(§6) The following primary antibodies were used:
(§7) Antibody Organelle stained Supplier and catalogue Working concentration […]
(§8) Calnexin Endoplasmic reticulum Invitrogen, PA5-34665 1:750
(§9) Hoechst nuclei stain was used to a working concentration of 1:5000. […]
(§10) concentration 4%). Cells were fixed for 15 minutes, washed with PBS (3x) and blocked with 3% BSA + 0.1 % […] for 5 minutes. The blocking solution was then removed and 40 μL of the primary antibodies in BSA added. The plate was stored in the dark, at 4 °C overnight. The primary antibodies were washed with PBS (3x) and 40 μL of the secondary antibodies and Hoechst nuclei stain in BSA added. The plate was kept at 4 °C for 1 hour, washed with PBS (3x) and imaged as described above. Images were analysed using Fiji (ImageJ) software.

The test system of another data set is U2OS and HCT116 cells. As to conditions: proliferation, growth rate, viability (Fig. S5-S7).
The target in another data set is T2, CK2α/CK2β interaction (Homo sapiens, UniProt P68400).
T2 construct: CK2α_WT was used (residues 2-329); His6 (N, cleaved yes); made in house; host or cells: Escherichia coli BL21(DE3)
T2 sequence (P68400 2-329): T1 sequence (P68400 2-329 R21S/K74A/K75A/K76A) with S20R, A73K, A74K, A75K
The data set is described as follows: ITC competition assay: CK2β binding to CK2α alone and in the presence of peptide. As to conditions: 25°C, 100 μM peptide, preliminary assay. The protocol: (§11) We then wanted to investigate whether the peptides would be able to inhibit the binding of the β subunit to the α subunit. To this end, the binding affinity of the regulatory β subunit for the catalytic domain was determined via ITC (Kd 9 nM). This was then repeated in the presence of 100 μM P1-C4 and P2-C4 (ESI, Table S4 ^†). […] As one of the key roles of CK2β is to recruit substrates to the kinase, the effect of PPI inhibition on substrate phosphorylation was studied using CK2β dependent and independent substrates. […] It should be noted that the kinase assay was performed using the pre-formed CK2α/β complex as the ability of CK2α to phosphorylate eIF2β requires the presence of the CK2β subunit.
1.4.3.2. Competition assay […]
concentrated to 4-6 μM. CK2β (9.3 mg/mL, 20 mM Tris pH 8.5, 500 mM NaCl) was diluted in Tris buffer (200 mM, NaCl, 300 mM, 10% DMSO) and concentrated to 40 μM. In a typical experiment, […]
performed at 150 second intervals. The syringe was loaded with CK2β and rotated at 750 rpm. The same experiment was repeated in the presence of the peptide s: compounds at 1 mM in DMSO were added to the solutions of CK2α and CK2β (prepared as described above) to a final concentration of […]
binding model using Origin software. […]
(CK2β-RAD) 200s, baseline 120s (assay buffer), control loading 200s (RAD), baseline 150s (assay buffer), ligand binding (association) 400s (CK2α K74A and CAM7117) and ligand dissociation 600s (assay buffer), followed by regeneration and next cycles. […]
GraphPad. The results are the average of 4 repeats and error shown as SEM.
Figure S10- Sensorgrams of the BLI competition experiments to assess the ability of P2-C4 to […] the CK2α/CK2β-RAD complex. a) Concentration of peptide ranging from 10 to 0.025 μM and 0 μM. b) Concentration of peptide ranging from 10 to 5 nM and 0 nM.
(1 picture or pasted object on this page, not shown here)

The next data set has as its target T3, CK2α/CK2β-RAD complex (Homo sapiens, UniProt P68400, K74A/K75A/K76A/R21S).
T3 construct: CK2α_KA (residues 2 -329) contained four; His6 (N, cleaved yes); made in house; host or cells: Escherichia coli BL21(DE3)
T3 sequence (P68400 2-329 R21S/K74A/K75A/K76A): T1 sequence (P68400 2-329 R21S/K74A/K75A/K76A)
As to the kind of experiment: Competition Bio-Layer Interferometry (BLI): formation of the CK2α/CK2β-RAD complex. The format is binding. To be noted: biotin-labelled CK2β-RAD 50 nM on streptavidin sensors, CK2α 50 nM, 20mM TRIS pH 8.0, 350mM NaCl, 0.5% Tween, average of 4 repeats, SEM, read-out: IC50, prevention of formation of the CK2α/CK2β-RAD complex. The protocol:
Octet RED96 (ForteBio) instrument was used for BLI analysis of biotin-labelled CK2β-RAD/CAM7117 interactions. Experiments were performed using SA-Streptavidin biosensors (ForteBio), which were regenerated with 10mM glycine, pH 1.7. 20mM TRIS pH 8.0, 350mM NaCl, 0.5% Tween was used as the assay buffer. For binding assays pre-wet sensors were loaded with biotin labelled CK2β-RAD protein at 50 nM in assay buffer. CK2α K74A was prepared at 50 nM in assay buffer and dilution series (from 0 to 10 μM) of CAM7117 were prepared in the assay buffer. The following experimental setup was used for each measurement cycle: regeneration 3× 5s, baseline 120s, sample loading (CK2β-RAD) 200s, baseline 120s (assay buffer), control loading 200s (RAD), baseline 150s (assay buffer), ligand binding (association) 400s (CK2α K74A and CAM7117) and ligand dissociation 600s (assay buffer), followed by regeneration and next cycles. During the control loading stage all […]
Regenerated SA-Streptavidin biosensors loaded with biotin labelled RAD were used to perform referencing. Data was processed using ForteBio Analysis 7.1 software and IC50 was calculated using GraphPad. The results are the average of 4 repeats and error shown as SEM. […]

The target of a further data set is T4, CK2α/β holoenzyme (Homo sapiens, UniProt P68400).
T4 construct: CK2α_WT was used (residues 2-329); His6 (N, cleaved yes); made in house; host or cells: Escherichia coli BL21(DE3)
T4 sequence (P68400 2-329): T1 sequence (P68400 2-329 R21S/K74A/K75A/K76A) with S20R, A73K, A74K, A75K
As to the kind of experiment: ADP-Glo kinase assay, CK2β-dependent substrate eIF2β, pre-formed CK2α/β complex. The format is biochemical. As to conditions: 50 nM CK2α_WT + 50 nM CK2β_WT pre-formed, 25 μM ATP, 50 μM eIF2β peptide, 25 °C, 120 min, at least three independent repeats, read-out: IC50, inhibition of phosphorylation of the CK2β-dependent substrate eIF2β. The protocol:
as §11
(§12) The kinase assays were performed using the ADP-Glo™ kinase assay kit (Promega). 50 nM CK2α_WT was incubated in the kinase reaction buffer (40 mM Tris pH 7.5, 200 mM NaCl, 20 mM MgCl2, 0.1 mg/mL BSA, 25 μM ATP, 50 μM substrate peptide (RRRADDSDDDD, Enzo Life Sciences […]
(§13) Inc. or eIF2β peptide […]), 5% (v/v) DMSO) in the presence of different concentrations of the inhibitor at 25 °C for 120 min. […] The luminescence was recorded using a PHERAstar FS plate reader (BMG LABTECH) with an integration time of 1 sec.
(§14) Percentage inhibition was calculated relative to a DMSO control after subtraction of the measurement for basal ATPase activity in the absence of substrate. […]
(ADP-Glo turns the ADP formed in a reaction into a luminescent signal.)

Data set [5] deals with T5, CK2α (Homo sapiens, UniProt P68400).
T5 construct: CK2α_WT was used (residues 2-329); His6 (N, cleaved yes); made in house; host or cells: Escherichia coli BL21(DE3)
T5 sequence (P68400 2-329): T1 sequence (P68400 2-329 R21S/K74A/K75A/K76A) with S20R, A73K, A74K, A75K
As to the kind of experiment: ADP-Glo kinase assay, β-independent substrate peptide RRRADDSDDDD
The format is biochemical. To be noted: 50 nM CK2α_WT, 25 μM ATP, 50 μM substrate, 25 °C, 120 min. The protocol: as §11, §12, §13, §14

Data set [6] relates to U2OS cells. The format is cell-based, human. Here is the method:
as §2, §3, §4, §5, §6, §7, §8, §9, §10

Residue numbers refer to the chain shown, from its start.

Experimental for U2OS and HCT116 cells: All cell lines used were supplied by AstraZeneca cell bank as mycoplasma free. U2OS bone
osteosarcoma and HCT116 colon carcinoma cells were maintained in RPMI -1640 (1x, Sigma Aldrich,
R0883) supplemented with 2 mM L-glutamine (Gibco, 25030-149) and fetal bovine serum (FBS, Gibco
Life Technologies, 10270-106) at a final concentration of 10%, hereafter known as growth medium. All
cells were grown at 37°C/5% CO2 in a humidified environment and all the assays were performed
using these culturing conditions.
HCT116 cells were seeded at 2000 cells per well into two flat-bottomed 384-well plates (PerkinElmer
CellCarrier Ultra) in 40 μL of growth medium. After 24 hours, the peptides dissolved in DMSO (10 mM)
were added to the cells (to final concentrations of 100, 75, 50, 32, 25, 16, 10, 7.7, 5, 3.2, 0 μM) using
HP Tecan dispenser and DMSO normalised to a final concentration of 1% (v/v). Cells were then
incubated in the presence of the compounds for 4 days and the rate of growth monitored with
IncuCyte Zoom (plate day 4). […]
inhibition was calculated relative to DMSO controls, normalised against day 0 and GI50 values were
calculated using Graphpad Prism. […]
minutes at room temperature, luminescence was read on a multimode plate reader (EnVision, […]
dead cells was measured. […]
calculated by subtracting the luminescent signal resulting from experimental cell death from total
luminescence death. […]

Broadly, the Kd is the constant that tells how readily two partners part at equilibrium. In general, GI50 refers to the concentration at which growth is held to half of that of the control. Read a low GI50 as more potent growth inhibition. Molecule `CC(=O)NCC(=O)N[C@H]1Cn2cc(nn2)-c2cc(C(=O)NCCCCCC(=O)NCCCCCC(=O)N[C@H](CCCNC(=N)N)C(=O)N[C@H](CCCNC(=N)N)C(=O)N[C@H](CCCNC(=N)N)C(N)=O)cc(c2)-c2cn(nn2)C[C@@H](C(=O)NCC(=O)NCC(N)=O)NC(=O)[C@H](Cc2c[nH]cn2)NC(=O)[C@H](Cc2c[nH]c3ccccc23)NC(=O)[C@H](CCCCN)NC(=O)[C@H](Cc2ccccc2)NC(=O)CNC(=O)[C@H](Cc2ccc(O)cc2)NC(=O)[C@H](CC(C)C)NC(=O)[C@H](CCCNC(=N)N)NC1=O` [CAM7117] yielded a Kd on CK2α [1] of 200 nM. For the same molecule, the results for the GI50 in the data set on HCT116 cells and in the data set on U2OS cells [2] were 76 ± 4 µM and 32 ± 2 µM, respectively. Also, in the data set with U2OS cells [3], the Induction of apoptosis result is on record as “induced apoptosis”. Besides, the “Nuclear localisation of CK2β after treatment” value in data set [4] was “little or no fluorescence associated with the CK2β antibody was found in the nucleus”.
Turning to `C#Cc1cc(C#C)cc(C(=O)NCCCCCC(=O)NCCCCCC(=O)N[C@H](CCCNC(=N)N)C(=O)N[C@H](CCCNC(=N)N)C(=O)N[C@H](CCCNC(=N)N)C(N)=O)c1` [F1C4], the “Biological effects in cancer cells” value in the data set on U2OS and HCT116 cells is given as “No biological effects”.
On to `CC(=O)NCC(=O)N[C@H]1Cn2cc(nn2)-c2cc(C(=O)O)cc(c2)-c2cn(nn2)C[C@@H](C(=O)NCC(=O)NCC(N)=O)NC(=O)[C@H](Cc2c[nH]cn2)NC(=O)[C@H](Cc2c[nH]c3ccccc23)NC(=O)[C@H](CCCCN)NC(=O)[C@H](Cc2ccccc2)NC(=O)CNC(=O)[C@H](Cc2ccc(O)cc2)NC(=O)[C@H](CC(C)C)NC(=O)[C@H](CCCNC(=N)N)NC1=O` [P2-C4], for which the “Improvement in Kd of the constrained peptide compared to the linear variant P2” value on CK2α [1] (ITC Kd, P2-C4 vs P2) was 300 fold. The molecule further registered a Kd on CK2α [1] of 150 nM. Also, the “Binding of CK2β to CK2α in the presence of peptide” value on CK2α/CK2β interaction is recorded as “no binding of CK2β to CK2α was detected”. Moreover, the IC50 on CK2α/CK2β-RAD complex was determined as 150 ± 19 nM; at CK2α/β holoenzyme, 206 ± 29 nM. Also, the “Effect on phosphorylation of a β-independent substrate peptide (RRRADDSDDDD)” value at CK2α [5] is given as “did not affect the phosphorylation”.
Take “GXF2C4RLYGFKWHXF2C4GG (sidechain bridge or staple) [P2-F2C4, FITC-labelled analogue of CAM7117]”: the “Cellular uptake / cell permeability” value in the data set with U2OS cells [6] is on record as “successfully internalised”.
